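These data come from cells grown in 96-well plates and exposed to compound for 48 hours at five concentrations. GI50: concentration for 50% inhibition of growth. TGI: concentration producing complete growth inhibition.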
How the values were obtained:
Assay in all cases: NCI tumour cell line growth inhibition, 48 h
OVCAR-5 ovarian = tested on: OVCAR-5 ovarian
KM12 colon = tested on: KM12 colon
SW-620 colon = tested on: SW-620 colon
COLO 205 colon = tested on: COLO 205 colon
MALME-3M melanoma = tested on: MALME-3M melanoma
OVCAR-8 ovarian = tested on: OVCAR-8 ovarian
HOP-92 NSCLC = tested on: HOP-92 NSCLC
BT-549 breast = tested on: BT-549 breast
NCI-H460 lung = tested on: NCI-H460 lung
ACHN renal = tested on: ACHN renal

Structure (SMILES)	GI50 (OVCAR-5 ovarian) [µM]	TGI (OVCAR-5 ovarian) [µM]	GI50 (KM12 colon) [µM]	TGI (KM12 colon) [µM]	GI50 (SW-620 colon) [µM]	TGI (SW-620 colon) [µM]	GI50 (COLO 205 colon) [µM]	TGI (COLO 205 colon) [µM]	GI50 (MALME-3M melanoma) [µM]	TGI (MALME-3M melanoma) [µM]	GI50 (OVCAR-8 ovarian) [µM]	TGI (OVCAR-8 ovarian) [µM]	GI50 (HOP-92 NSCLC) [µM]	TGI (HOP-92 NSCLC) [µM]	GI50 (BT-549 breast) [µM]	TGI (BT-549 breast) [µM]	GI50 (NCI-H460 lung) [µM]	TGI (NCI-H460 lung) [µM]	GI50 (ACHN renal) [µM]	TGI (ACHN renal) [µM]
COc1ccc(C(=O)C[C@]2(O)C(=O)Nc3c(Cl)ccc(Cl)c32)cc1	2.43	> 100	0.39	> 40.1	0.379	> 100	0.488	9.78	0.503	> 100	0.92	> 77.3	1.41	> 92.3	0.59	> 72.9	0.389	> 53.5	0.774	> 100
Cc1cc(=O)oc2cc(OCCn3c(C)nn(-c4ccc(Cl)cc4)c3=O)ccc12	21.9	> 100	1.66	> 100	2.2	> 100	2.39	7.34	3.85	> 100	5.17	> 100	16.1	> 100	16.5	99.4	2.8	> 100	5.59	> 100
COc1ccc2c(c1)nc1n2C(c2ccc(F)cc2)SC1 (centres undefined)	33.6	> 100	23.3	70.2	32.3	> 100	16	37.4	23.5	63	17.2	43.2	23	> 100	17.1	42.1	16.1	67.7	20.8	47.3
Cn1cnc([N+](=O)[O-])c1Sc1nc(N)nc2nc[nH]c12	4.48	> 100	3.94	> 100	7.43	> 100	15	> 74.5	13	> 100	3.68	> 100	3.1	> 100	5.08	> 100	2.25	> 100	10	> 100
O=C(O)Cn1ccnc1[N+](=O)[O-]	–	> 100	–	> 100	–	> 100	–	> 100	–	> 100	–	> 100	–	> 100	–	> 100	–	> 100	–	> 100
CC1(C)C2CCC13C(=O)C1OC3(C2)C2C(=O)c3c(O)cccc3C(=O)C12 (centres undefined)	4.25	13.7	2.6	14.9	–	–	4.09	16.1	0.29	1.02	0.821	2.68	0.566	1.89	1.2	3.34	3.75	21.2	1.56	2.98
CC[C@@]1(O)C(=O)OCc2c1cc1n(c2=O)Cc2cc3c(N)cccc3nc2-1	0.0763	1.1	0.0151	11.6	–	16.3	–	6.22	–	1.88	0.0403	2.51	–	1.99	0.0394	5.26	0.00439	0.462	0.00448	0.0501
